From patent publication US20040192641A1, “Special preparation of anticancer drugs made by novel nanotechnology” (priority 2003, published 2004)

Experiments:
[1] = test system: Human leukemia cells (HL-60); assay: Apoptosis of cancer cells (HL-60); assay type: cell-based
Description: Human leukemia cells (HL-60) were grown in RPMI Medium 1640 supplemented with 10% (v/v) heat-inactivated FBS (56° C. for 30 min) at 37° C. in a humidified 95% air/5% CO2 atmosphere. Cells were seeded at a level of 2×10^5 cells/ml. Cells were allowed to attain a maximum density of 1.2×10^6 cells/ml before being passed by dilution into fresh medium to a concentration of 2×10^5 cells/ml.
Apoptosis determined by the following process: Cell pellets containing 5×10^6 cells were fixed with 2.5% glutaraldehyde in cacodylate buffer (pH 7.4), dehydrated through graded alcohol, and infiltrated with LX-112 epoxy resin. After overnight polymerization at 60° C. 1-μm sections were cut with glass knives using a LKB Nova microtome. The sections were stained with 1% toluidine blue and coverslipped.
DNA electrophoresis: Untreated and treated HL-60 cells collected by centrifugation, washed in phosphate buffered saline and re-suspended at a concentration of 5×10^6 cells and 0.1% RNase A. The mixture was incubated at 37° C. for 30 min and then incubated for an additional 30 min at 37° C. with 1 ml protease K. Buffer was added and 25 μl of the tube content transferred to the Horizontal 1.5% agarose gel electrophoresis was performed at 2 V/cm. DNA in gels visualized under UV light after staining with ethidium Bromide (5 μg/ml).
DNA fragmentation assays: DNA cleavage was performed, quantitation of fractional solubilized DNA by diphenylamine assay and the percentage of cells harboring fragmented DNA determined by in labeling techniques. For the diphenylamine assay, 5×10^6 cells were lysed in 0.5 mL lysis buffer (5 mmol/L Tris-HCl, 20 mmol/L DTA, and 0.5% Triton X-100, pH 8.0) at 4° C. Lysates were centrifuged (15,000 g) for separation of high molecular weight DNA (pellet) and DNA cleavage products (supernatant). DNA was precipitated with 0.5 N perchloric acid and quantitated using diphenylamine reagent. The cell cycle distribution was determined 4 hours after addition of drug and represents mean±SD of 5 independent experiments.
Human promyelocytic leukemia cells (HL-60) were grown in RPMI Medium 1640 supplemented with 10% (v/v) heat-inactivated FBS (56° C. for 30 min) at 37° C. in a humidified 95% air/5% CO2 atmosphere. Cells were seeded at a level of 2×10^5 cells/ml. Cells were allowed to attain a maximum density of 1.2×10^6 cells/ml before being passed by dilution into fresh medium to a concentration of 2×10^5 cells/ml. Apoptosis determined by the following process: Cell pellets containing 5×10^6 cells ere fixed with 2.5% glutaraldehyde in cacodylate buffer (pH 7.4), dehydrated through graded alcohol, and infiltrated with LX-112 epoxy resin. After overnight polymerization at 60° C. 1-μm sections were cut with glass knives using a LKB Nova microtome. The sections were stained with 1% toluidine blue and coverslipped. […]
DNA fragmentation assays: DNA cleavage was performed, quantitation of fractional solubilized DNA by diphenylamine assay and the percentage of cells harboring fragmented DNA determined by in labeling techniques. […] DNA was precipitated with 0.5N perchloric acid and quantitated using diphenylamine reagent. […]

Lewis = assay: Growth of transplanted tumor, Lewis (tumor weight); assay type: in vivo, mice; details: 20 mg/kg i.p. from second day, tumor weight on 12th day
Description: Male mice, weight 20-22 g, were used in the experiment. 1×10^7 tumor cells were injected to mouse and PK-HHT-NP injected intraperitoneally began second day. All mice were sacrificed on the 12th days, isolated the tumor and weighed and calculated the inhibition rate of tumor weight.
Male mice, weight 20-22 g, were used in the experiment. 1×10^7 tumor cells were injected to mouse and CUR and PK-CUR-NP injected intraperitoneally began second day. All mice were sacrificed on the 12th days, isolated the tumor and weighed and calculated the inhibition rate of tumor weight.
Male mice, weight 20-22 g, were used in the experiment. 1×10^7 tumor cells were injected to mouse and ELE injected intraperitoneally began second day. All mice were sacrificed on the 12th days, isolated the tumor and weighed and calculated the inhibition rate of tumor weight.
Male mice, weight 20-22 g, were used in the experiment. 1×10^7 tumor cells were injected to mouse and CPT injected intraperitoneally began second day. All mice were sacrificed on the 12th days, isolated the tumor and weighed and calculated the inhibition rate of tumor weight.

tumor cells = assay: Stained dead tumor cells in peritoneal fluid of tumor-bearing mice (ELE, CPT); assay type: in vivo; details: 12th day of tumor inoculation
Description: (§1) The acceptable criterion for determining the anti-tumor efficacy of the formulation over the free ELE and PK-ELE-NP are the determination of the life span prolongation.
(§2) The number of dead cells in the peritoneal fluid of mice treated with PK-ELE-NP formulation increased life span when compared to free ELE.
(§3) The acceptable criterion for determining the anti-tumor efficacy of the formulation over the free drug and PK-CPT-NP are the determination of the life span prolongation. The number of dead cells in the peritoneal fluid of mice treated with PK-CPT-NP formulation increased life span when compared to free CPT.

tumor-bearing mice = assay: Survival time of tumor-bearing mice (ELE, CPT); details: mouse, in vivo
Description: as §1, §2, §3

[2] = mice, I.P. (injection in abdominal cavity)

Compound	Apoptosis (%) ([1]; concentration not given)	Inhibition (%) of transplanted tumor (Lewis)	Number of stained dead tumor cells (1 × 10^6 cells mL^−1) (tumor cells)	Increase in life span T/C (%) (tumor-bearing mice)	MST (tumor-bearing mice)	LD50 (Acute toxicity LD50; mouse, in vivo, ip)	LD50 (Acute toxicity LD50; [2])	Apoptosis (%) ([1]; Concentration 20 μm)	Apoptosis (%) ([1]; Example 59)
CC[C@@]1(O)C(=O)OCc2c1cc1n(c2=O)Cc2cc3ccccc3nc2-1 [CPT, Camptothecin]	65.8 ± 9.8%	60.8 ± 10.4%	5.36 ± 0.95 1 × 10^6 cells mL^−1	144.3%	33 ± 4.5 days	76 mg/kg			
C=C1C[C@@]2(O)O[C@@]3(C[C@H]2C(C)C)[C@@H](C)CC[C@@H]13 [CUR, Curcumol]	68.3 ± 7.8%	68.9 ± 7.8%					325 mg/kg		
COC(=O)C[C@](O)(CCCC(C)(C)O)C(=O)O[C@@H]1C(OC)=C[C@]23CCCN2CCc2cc4c(cc2[C@H]13)OCO4 [HHT, Homoharringtonine]		70 ± 6%				3.3 ± 0.29 mg/kg		68.3 ± 7.6%	68.3 ± 7.6%
Eelemene	69.2 ± 9.1%	65.8 ± 10.5%	5.80 ± 0.80 1 × 10^6 cells mL^−1	144.3%	33.2 days		318 mg/kg		
